Test results taken from patent US12077503B2, “Substituted cyclic amides and their use as herbicides” (FMC CORPORATION, priority 2015, dated 2024).

Legend:
Assay type in all cases: in vivo
[1] = test system: giant foxtail (Setaria faberii); assay: Test A postemergence; settings: Setaria faberi, post-emergence, 240 h, Postemergence; for pest or weed control at 125 g/ha: 125 g ai/ha, visual rating about 10 d after treatment, read-out: Foxtail, Giant plant response rating (0 to 100 scale); for pest or weed control at 500 g/ha: 500 g ai/ha, visual injury, 0 to 100 scale (0 no effect, 100 complete control), approx. 10 d, read-out: Plant response rating, Foxtail, Giant
Summary of the method: (§1)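 Greenhouse, ~10 d after spray; visual injury vs untreated controls, 0 = no effect, 100 = complete control. Preemergence: directed soil spray over planted seeds. Postemergence: plants 2–10 cm, 1–2 leaf stage. Loam/sand blend. Compound in non-phytotoxic solvent with surfactant.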

[2] = test system: crabgrass, large (Digitaria sanguinalis); assay: Test A postemergence; settings: Digitaria sanguinalis, post-emergence, 240 h, Postemergence; for pest or weed control at 125 g/ha: 125 g ai/ha, visual rating about 10 d after treatment, read-out: Crabgrass, Large plant response rating (0 to 100 scale); for pest or weed control at 500 g/ha: 500 g ai/ha, visual injury, 0 to 100 scale (0 no effect, 100 complete control), approx. 10 d, read-out: Plant response rating, Crabgrass, Large
Summary of the method: as §1

[3] = test system: barnyardgrass (Echinochloa crus-galli); assay: Test A postemergence; settings: Echinochloa crus-galli, post-emergence, 240 h, Postemergence; for pest or weed control at 125 g/ha: 125 g ai/ha, visual rating about 10 d after treatment, read-out: Barnyardgrass plant response rating (0 to 100 scale, 0 no effect, 100 complete control); for pest or weed control at 500 g/ha: 500 g ai/ha, visual injury, 0 to 100 scale (0 no effect, 100 complete control), approx. 10 d, read-out: Plant response rating, Barnyardgrass
Summary of the method: as §1

[4] = test system: wheat (Triticum aestivum); assay: Test A postemergence; settings: Triticum aestivum, post-emergence, 240 h, Postemergence; for plant injury at 125 g/ha: 125 g ai/ha, visual rating about 10 d after treatment, read-out: Wheat plant response rating (0 to 100 scale); for plant injury at 500 g/ha: 500 g ai/ha, visual injury, 0 to 100 scale (0 no effect, 100 complete control), approx. 10 d, read-out: Plant response rating, Wheat
Summary of the method: as §1

[5] = test system: pigweed (Amaranthus retroflexus); assay: Test A postemergence; settings: Amaranthus retroflexus, post-emergence, 240 h, Postemergence; for pest or weed control at 125 g/ha: 125 g ai/ha, visual rating about 10 d after treatment, read-out: Pigweed plant response rating (0 to 100 scale); for pest or weed control at 500 g/ha: 500 g ai/ha, visual injury, 0 to 100 scale (0 no effect, 100 complete control), approx. 10 d, read-out: Plant response rating, Pigweed
Summary of the method: as §1

[6] = test system: morningglory (Ipomoea spp.); assay: Test A postemergence; settings: Ipomoea, post-emergence, 240 h, Postemergence; for pest or weed control at 125 g/ha: 125 g ai/ha, visual rating about 10 d after treatment, read-out: Morningglory plant response rating (0 to 100 scale); for pest or weed control at 500 g/ha: 500 g ai/ha, visual injury, 0 to 100 scale (0 no effect, 100 complete control), approx. 10 d, read-out: Plant response rating, Morningglory
Summary of the method: as §1

[7] = test system: velvetleaf (Abutilon theophrasti); assay: Test A postemergence; settings: Abutilon theophrasti, post-emergence, 240 h, Postemergence; for pest or weed control at 125 g/ha: 125 g ai/ha, visual rating about 10 d after treatment, read-out: Velvetleaf plant response rating (0 to 100 scale); for pest or weed control at 500 g/ha: 500 g ai/ha, visual injury, 0 to 100 scale (0 no effect, 100 complete control), approx. 10 d, read-out: Plant response rating, Velvetleaf
Summary of the method: as §1

[8] = test system: corn (Zea mays); assay: Test A postemergence; settings: Zea mays, post-emergence, 240 h, Postemergence; for plant injury at 125 g/ha: 125 g ai/ha, visual rating about 10 d after treatment, read-out: Corn plant response rating (0 to 100 scale); for Corn plant response rating (crop injury, 0 = no effect, 100 = complete kill) at 500 g/ha: 500 g ai/ha, visual injury, 0 to 100 scale (0 no effect, 100 complete control), approx. 10 d
Summary of the method: as §1

[9] = test system: giant foxtail (Setaria faberii); assay: Test A preemergence; settings: Setaria faberi, pre-emergence, 240 h, 0 to 100 scale (0 no effect, 100 complete control), read-out: Plant response rating, Foxtail, Giant; for pest or weed control at 500 g/ha: 500 g ai/ha, preemergence; for pest or weed control at 125 g/ha: Preemergence, 125 g ai/ha
Summary of the method: as §1

[10] = test system: crabgrass, large (Digitaria sanguinalis); assay: Test A preemergence; settings: Digitaria sanguinalis, pre-emergence, 240 h, 0 to 100 scale (0 no effect, 100 complete control), read-out: Plant response rating, Crabgrass, Large; for pest or weed control at 500 g/ha: 500 g ai/ha, preemergence; for pest or weed control at 125 g/ha: Preemergence, 125 g ai/ha
Summary of the method: as §1

[11] = test system: barnyardgrass (Echinochloa crus-galli); assay: Test A preemergence; settings: Echinochloa crus-galli, pre-emergence, 240 h, 0 to 100 scale (0 no effect, 100 complete control), read-out: Plant response rating, Barnyardgrass; for pest or weed control at 500 g/ha: 500 g ai/ha, preemergence; for pest or weed control at 125 g/ha: Preemergence, 125 g ai/ha
Summary of the method: as §1

[12] = test system: wheat (Triticum aestivum); assay: Test A preemergence; settings: Triticum aestivum, pre-emergence, 240 h, 0 to 100 scale (0 no effect, 100 complete control), read-out: Plant response rating, Wheat; for plant injury at 500 g/ha: 500 g ai/ha, preemergence; for plant injury at 125 g/ha: Preemergence, 125 g ai/ha
Summary of the method: as §1

[13] = test system: pigweed (Amaranthus retroflexus); assay: Test A preemergence; settings: Amaranthus retroflexus, pre-emergence, 240 h, 0 to 100 scale (0 no effect, 100 complete control), read-out: Plant response rating, Pigweed; for pest or weed control at 500 g/ha: 500 g ai/ha, preemergence; for pest or weed control at 125 g/ha: Preemergence, 125 g ai/ha
[14] = test system: morningglory (Ipomoea spp.); assay: Test A preemergence; settings: Ipomoea, pre-emergence, 240 h, 0 to 100 scale (0 no effect, 100 complete control), read-out: Plant response rating, Morningglory; for pest or weed control at 500 g/ha: 500 g ai/ha, preemergence; for pest or weed control at 125 g/ha: Preemergence, 125 g ai/ha
Summary of the method: as §1

[15] = test system: velvetleaf (Abutilon theophrasti); assay: Test A preemergence; settings: Abutilon theophrasti, pre-emergence, 240 h, 0 to 100 scale (0 no effect, 100 complete control), read-out: Plant response rating, Velvetleaf; for pest or weed control at 500 g/ha: 500 g ai/ha, preemergence; for pest or weed control at 125 g/ha: Preemergence, 125 g ai/ha
Summary of the method: as §1

[16] = test system: corn (Zea mays); assay: Test A preemergence; settings: Zea mays, pre-emergence, 240 h, 0 to 100 scale (0 no effect, 100 complete control); for Corn plant response rating (crop injury, 0 = no effect, 100 = complete kill) at 500 g/ha: 500 g ai/ha, preemergence; for Corn plant response rating (crop injury, 0 = no effect, 100 = complete kill) at 125 g/ha: Preemergence, 125 g ai/ha
Summary of the method: as §1

CN1C[C@H](c2ccccc2)[C@](C)(C(=O)Nc2ccccc2F)C1=O (racemic) [Compound 1360]
0%: pest or weed control at 125 g/ha [1] | pest or weed control at 500 g/ha [1] | pest or weed control at 125 g/ha [2] | pest or weed control at 500 g/ha [2] | pest or weed control at 125 g/ha [3] | pest or weed control at 500 g/ha [3] | plant injury at 125 g/ha [4] | plant injury at 500 g/ha [4] | pest or weed control at 125 g/ha [5] | pest or weed control at 500 g/ha [5] | pest or weed control at 125 g/ha [6] | pest or weed control at 500 g/ha [6] | pest or weed control at 125 g/ha [7] | pest or weed control at 500 g/ha [7] | plant injury at 125 g/ha [8] | Corn plant response rating (crop injury, 0 = no effect, 100 = complete kill) at 500 g/ha [8] | pest or weed control at 500 g/ha [9] | pest or weed control at 125 g/ha [9] | pest or weed control at 500 g/ha [10] | pest or weed control at 125 g/ha [10] | pest or weed control at 500 g/ha [11] | pest or weed control at 125 g/ha [11] | plant injury at 500 g/ha [12] | plant injury at 125 g/ha [12] | pest or weed control at 500 g/ha [13] | pest or weed control at 125 g/ha [13] | pest or weed control at 500 g/ha [14] | pest or weed control at 125 g/ha [14] | pest or weed control at 500 g/ha [15] | pest or weed control at 125 g/ha [15] | Corn plant response rating (crop injury, 0 = no effect, 100 = complete kill) at 500 g/ha [16] | Corn plant response rating (crop injury, 0 = no effect, 100 = complete kill) at 125 g/ha [16]

O=C1NCC(c2c(Cl)cccc2Cl)C1C(=O)Nc1ccccc1F (stereo not shown) [Compound 1361]
0%: pest or weed control at 125 g/ha [1] | pest or weed control at 500 g/ha [1] | pest or weed control at 125 g/ha [2] | pest or weed control at 500 g/ha [2] | pest or weed control at 125 g/ha [3] | pest or weed control at 500 g/ha [3] | plant injury at 125 g/ha [4] | plant injury at 500 g/ha [4] | pest or weed control at 125 g/ha [5] | pest or weed control at 500 g/ha [5] | pest or weed control at 125 g/ha [6] | pest or weed control at 500 g/ha [6] | pest or weed control at 125 g/ha [7] | pest or weed control at 500 g/ha [7] | plant injury at 125 g/ha [8] | Corn plant response rating (crop injury, 0 = no effect, 100 = complete kill) at 500 g/ha [8] | pest or weed control at 500 g/ha [9] | pest or weed control at 125 g/ha [9] | pest or weed control at 500 g/ha [10] | pest or weed control at 125 g/ha [10] | pest or weed control at 500 g/ha [11] | pest or weed control at 125 g/ha [11] | plant injury at 500 g/ha [12] | plant injury at 125 g/ha [12] | pest or weed control at 500 g/ha [13] | pest or weed control at 125 g/ha [13] | pest or weed control at 500 g/ha [14] | pest or weed control at 125 g/ha [14] | pest or weed control at 500 g/ha [15] | pest or weed control at 125 g/ha [15] | Corn plant response rating (crop injury, 0 = no effect, 100 = complete kill) at 500 g/ha [16] | Corn plant response rating (crop injury, 0 = no effect, 100 = complete kill) at 125 g/ha [16]
